Data published in patent publication US20230279482A1, “COMPOSITIONS, METHODS AND USES FOR QUANTIFYING TRANSCRIPTION AND BIOSENSING OF SMALL MOLECULES USING A NOVEL TYPE VI CRISPR-CAS ASSAY” (THE REGENTS OF THE UNIVERSITY OF COLORADO, A BODY CORPORATE, priority 2020, published 2023).

System: crcB fluoride riboswitch
Experiment: SPRINT assay with fluoride riboswitch
Format: biochemical, B. cereus
Method: SPRINT reactions. Pentauridine RNA oligonucleotides were labeled with carboxyfluorescein (FAM) or TEX 615 at the 5′-end and with Iowa Black FQ at the 3′-end. Fluorescence measurements were taken at wavelengths 490/525 nm (excitation/emission) when the FAM fluorophore was used. In reactions with flavin-containing ligands, TEX-labeled RNA oligos were used at the wavelengths 576/615 (excitation/emission). Fluorescence measurements were taken every 5 minutes.
For exemplary SPRINT assays, a master mix was first prepared and then mixed with the remaining reaction reagent components to yield a final reaction volume of 30 μL; fluorescent readings of the entire reaction volume were performed in Corning 384 Flat Bottom Black Polystyrol plates. This master mix (SPRINT buffer, 10×), for assays contemplated herein can include, but is not limited to: 700 mM Tris-HCl, pH 8.0, 700 mM NaCl, 1 mM EDTA, 140 mM β-mercaptoethanol, and 25 mM MgCl2. Aliquots of an exemplary 10× SPRINT buffer were stored at −20° C. and not allowed to undergo more than 10 freeze-thaw cycles.
The B. cereus crcB fluoride riboswitch is a regulatory switch that turns on expression of the fluoride efflux pump crcB via selectively binding fluoride over chloride. […] This may be explained in part by an observed inhibition of the assay at fluoride concentrations above 100 μM. […]

- EC50 (FIG. 4C, read-out: T50 value): 11 ± 1 µM
Structure (SMILES): [F-].[Na+] [fluoride, sodium fluoride]
- fluoride concentration at which inhibition of the assay is observed (one-batch SPRINT): above 100 μM
